How the values were obtained:
[1] = test system: STAT3/DNMT1 interaction; test: IP assay: endogenous STAT3/DNMT1 interaction in U87 cells; assay type: cell-based, human; details: C16 for 2 h, n = 3, p < 0.01
Experimental: Figure 7 Peptide derived from the STAT3‐binding sites of SHF is an effective GBM suppressive strategy. A) Binding model between SHF and STAT3 using ZDOCK server. […] B) IF staining determined the cell penetrability and nuclear‐localization of C16. U251 cells were incubated with C16 or SC for 2 h and performed IF staining using the indicated antibodies. Bars, 10 µm. C) The statical analysis of adsorption equilibrium assay detecting the binding of C16 and SC with recombinant STAT3. D) Pull‐down assay indicating C16 binds STAT3. GST‐STAT3 was incubated with C16 or SC for 2 h, and the pull‐down assay was performed using Anti‐His magnetic beads. E) IP assay showing the effect of C16 on STAT3 dimerization. 293T cells transfected with indicated vectors were incubated with C16 for 2 h. The relative quantification of STAT3 dimerization was listed. F) IP assay detecting the effect of C16 on the interaction of STAT3 and DNMT1. […] The relative quantification of STAT3/DNMT1 interaction was listed. […] The relative quantification of STAT3/DNMT1 interaction was listed. […] Positive cells were quantified 20 randomly selected fields per mouse (n = 6, Student's t‐test, **p < 0.01). […]
Immunoprecipitation (IP) experiments were performed to analyze the protein interactions. […] Precipitated products were analyzed by Western blot using the specified antibodies. […]

[2] = test system: U87 xenograft tumor cell proliferation; test: EdU incorporation in intracranial U87 xenografts; assay type: in vivo, mouse; details: 10 µg i.p. once every 2 days; EdU 24 h prior to sacrifice; vs SC; n = 6, p < 0.01
Excerpt: Considering that the SH2 domain predominantly represents the inhibition of SHF on STAT3 dimerization and activity, we speculated that this domain may be an optional target for GBM suppression. To this end, we analyzed the mechanical interaction of SHF and STAT3. The structures of human SHF (aa265‐421) and STAT3 (aa130‐715). both of which spanned their respective SH2 domain. were simulated by Swiss‐Model server (https://swissmodel.expasy.org/). To simulate the interaction of SHF and STAT3, Discovery studio 2018 was employed to complete protein‐protein docking using ZDOCK as an initial stage. A rigid body molecular docking algorithm utilizing a fast Fourier transform (FFT) algorithm was used to further improve performance for searching in translational space. […] Next, we determined the implication of C16 in tumor inhibition. […] A concentration of 25 uM was determined to be adequate for use in the subsequent experiments. […]
Figure 7 Peptide derived from the STAT3‐binding sites of SHF is an effective GBM suppressive strategy. […] B) IF staining determined the cell penetrability and nuclear‐localization of C16. […] The relative quantification of STAT3 dimerization was listed. […] The relative quantification of STAT3/DNMT1 interaction was listed. […] The relative quantification of STAT3/DNMT1 interaction was listed. […]

In the case of “C16: peptide spanning SHF amino acids 388–421, palmitic acid at the N-terminus, amidated C-terminus, 3× His tags added to the C-terminal (PFSSVPEIVHHYASRKLPIKGAEHMSLLYPVAIR; palmitic acid at the N-terminus; amidated C-terminus; left off: 3× His tags, C-terminal, kept)”, the “endogenous STAT3/DNMT1 interaction” value [1] is reported as “decrease” and the “EdU positive cells in xenografts” value [2] is reported as “significantly decreased”.

Source: PMC9475553, “SHF Acts as a Novel Tumor Suppressor in Glioblastoma Multiforme by Disrupting STAT3 Dimerization” (Advanced Science, 2022)
